{"source": "paper PMC12049818", "about": "“Identification of NUV-244 as a PNPLA3 I148M degrading small molecule” (iScience, 2025)", "system": "Huh7 cells expressing PNPLA3 I148M-tagRFP", "assay": "Lipid droplet dispersion / normalization of lipid droplet morphology in Huh7 PNPLA3 I148M-tagRFP cells", "format": "cell-based, human", "description": "During the HTS we observed that PNPLA3 I148M-tagRFP expression altered the morphology of lipid droplets compared to the Huh7 parental control cells. PNPLA3 I148M-tagRFP expression leads to clustering of large lipid droplets around the nucleus and a reduction of small cytoplasmic lipid droplets, which is reflected by changes (lowering) in the number of lipid droplets scorable by the lipid droplet detection algorithm per cell (Figures 4A and 4B, Video S1). Indeed, a role for PNPLA3 I148M in the regulation of lipid droplet morphology is known.[12]^,[13]^,[15]^,[16]^,[21]^,[33] We speculated that reduction of PNPLA3 I148M-tagRFP on lipid droplets of Huh7 cells should therefore restore lipid droplet morphology back to the WT situation in the parental cell line. For this we analyzed all hits at the retest stage in the primary assay. […]\nImages were analyzed using Harmony (Revvity) and MetaXpress software (Molecular Devices, USA) to quantify lipid droplet morphology and PNPLA3 I148M-tagRFP intensity.\nAssay plates were evaluated based on Z’ scores (>0.6) and signal-to-background ratio (>12) using Genedata Screener® for HTS and Condoseo modules (Genedata, Switzerland). […] Automated image analysis routines were set up to quantify the number, morphology and intensity of nuclei, lipid droplets and the intensity of PNPLA3 I148M-tagRFP on lipid droplets. […]", "data": [{"smiles": "Cc1cccc(Cc2nc(C)c(C(=O)Nc3cc(O)ccc3Cl)s2)c1", "note": "[NUV-244]", "values": [{"measurement": "appearance of small mobile lipid droplets (time-lapse)", "setting": "5μM for 24h, Huh7 expressing PNPLA3 I148M", "result": "partially restore"}, {"measurement": "EC50", "setting": "Homo sapiens, Huh-7, resynthesis, representative curve, Figure 4C, read-out: EC50 [M] Lipid droplet aggregates", "result": "4.84e-07", "unit": "M"}]}]}
